According to patent publication US20110117055A1, “Methods of Treating Hepatitis C Virus with Oxoacetamide Compounds” (priority 2009, published 2011):
“Also recorded” adds a separate entry of the source. Read-outs that look alike come from different tables or passages of the source.

What was measured:
[1] = system: HCV genotype 1b subgenomic replicon; experiment: HCV replicon assay (HCV1b replicon cells, NS5A ELISA); format: cell-based; conditions: 3 days
Procedure: Alternatively, Hut1b cells (Huh7 cells stably replicating HCV genotype 1b subgenomic replicon) were treated with serial dilutions of the test compound for 72 hours. Replication efficiency was monitored by ELISA assay using anti-HCV NS5A monoclonal antibody (Virogen).
Increasing amounts of compound were inoculated onto HCV1b replicon cells and incubated for 3 days. Following incubation, HCV replication was monitored with NS5A protein expression by ELISA.

[2] = system: HCV2aCh (E2:G451R) mutant virus; experiment: E2:G451R mutant virus infectivity, luciferase assay; format: cell-based, HCV genotype 2a; conditions: E2:G451R vs parental
Source text: Since SR-B1 is also known to be one of the essential cellular receptors required for HCV entry, we were interested to know if Compounds 1 and 5 inhibits HCV entry via SR-B1. HCV E2 protein interaction with SR-B1 is believed to occur via hypervariable region 1 located within the N-terminal region of the E2 glycoprotein. Zhong and colleagues reported that a glycine-to-arginine mutation at position 451 (G451R) in E2 promoted JFH-1 infectivity (J. Viol. 2006, 80:11082). […] We introduced the E2:G451R mutation into the backbone of HCV2aCh (FIG. 13a) to test whether this mutation may alter the inhibitory effect of Compounds 1 and 5 on HCV entry mediated by SR-B1.

Jc1-luc virus = experiment: Luciferase compound activity assay, Jc1-luc virus in Huh7.5.1 cells; format: cell-based, HCV genotype-2a; conditions: Jc1-luc; ± standard error of the mean
Procedure: Cell culture. Human hepatoma Huh-7.5.1 cells or Huh7 cells were grown at 37° C. and 5% CO2 in Dulbecco's modification of Eagle's medium supplemented with 2 mM L-glutamine, 1 mM Sodium pyruvate, 1× Non-essential amino acids mix, 100 units/ml penicillin, 100 μg/ml streptomycin, and 10% fetal bovine serum.
Virus plasmids. The chimeric full-length construct pFL-JC1, a GT2a/2a chimera consisting of structural genes from the J6CF isolate and non-structural genes from the JFH1 isolate, has been described previously. See Backes et al., J. Virol. 2010, 84:5775-89; Schaller et al., J. Virol., 2007, 81:4591-603; Koutsoudakis et al., J. Virol. 2006, 80:5308-20; Pietschmann et al., Proc. Natl. Acad. Sci., 2006, 103:7408-13. The firefly luciferase gene has been inserted to pFL-Jc1 to develop a plamid pFL-Jc1-luc for use as a reporter of viral replication. See Amako et al., J. Virol. 2009, 83:9237-46. Specifically, the pFL-JC1-luc construct can be utilized to develop an infectious HCV cell culture system to test novel HCV inhibitors, including entry inhibitors, in vitro using luciferase expression.
Preparation of infectious HCV. Jc1-luc or HCV2a/2aChRluc RNA was in vitro transcribed using T7 RiboMAX™ Express Large Scale RNA Production System (Promega). After RNA clean up (Qiagen RNeasy Mini kit), transfection was performed as previously described.
400 microliters of a Huh-7.5.1 or Huh7 cell suspension (10^7 cells/ml) was placed in a 0.4-cm cuvette with 10 μg of Jc1-luc or HCV2a/2aChRluc RNA and electroporated (Bio-Rad Gene Pulser System) using a single square wave at 260 V and 25 ms pulse length. The cells were plated in 15-cm tissue culture dishes (Corning) and supernatant was harvested and concentrated using a centrifugal filter (Amicon 100K, Millipore).
Luciferase compound activity assay. Cell culture and luciferase compound assays were performed as previously described. See Wyles et al., J. Virol. 2007, 81:3005-8; Wyles et al., Antimicrob Agents Chemother. 2009, 53:2660-2; Grünberger et al., J. Infect. Dis. 2008, 197:42-5; Wyles et al., Antimicrob Agents Chemother, 2008, 52:1862-4. Briefly, Huh7.5.1 cells were seeded into 96-well plates at a density of 10,000 cells per well in 100 μl medium. After incubating overnight for attachment, Jc1-luc virus at an MOI 0.01 was added to wells with or without compounds at the specified concentrations. All conditions were run in triplicate. After 24 hours, medium was aspirated and replaced with 100 μl of complete medium containing an identical concentration of compound(s) followed by additional 48 hour incubation. The luciferase assay (Bright-Glo; Promega) was carried out according to the manufacturer's instructions. Luciferase activity was determined using a microplate luminometer (Veritas microplate luminometer; Turner Biosystems). […]

HCV2aChLuc virus = experiment: In vitro HCVcc entry assay: HCV2aChLuc virus infection of Huh7 cells, Renilla luciferase read-out; format: cell-based, HCV genotype 2a; conditions: for IC50: Hepatitis C virus
[3] = system: Bovine viral diarrhea virus (BVDV); experiment: BVDV plaque-forming assay in MDBK cells; format: cell-based; conditions: even at 1 μM
Procedure: Bovine viral diarrhea virus (BVDV) is a closely related virus to HCV, belonging to the same Family, Flaviviridae. To validate the specificity of antiviral activity, BVDV infection was done with MDBK cells in the presence of compounds provided herein. MDBK cells (70 to 80% confluent) were infected with a diluted virus. Following 1 h of adsorption at 37° C., cells were washed once with DMEM, overlaid with 1.5% low-melting-point (LMP) agarose (Gibco-BRL) in MEM containing 5% HS, and incubated at 37° C. To assay for plaque-forming virus, after 3 days monolayers were fixed with 3.7% formaldehyde for 2 h at room temperature, the agarose plugs were removed, and the monolayers were stained with crystal violet.

HCV1a/2a chimeric virus = experiment: HCV entry assay with HCV1a/2a chimeric virus; format: cell-based, HCV genotype 1a; conditions: compared with HCV2a chimeric virus
Source text: Since HCV genotype 1 is the most prevalent genotype among the variants of HCV, we constructed an HCV1a/2a chimeric infectious clone with two cell-culture adaptive mutations introduced. Sequences for the structural proteins (including C, E1, and E2), p7, and NS2 were derived from HCV genotype 1a H77 strain. The rest of nonstructural proteins (NS3 to NS5B) and 3′ NTR were derived from HCV genotype 2a JFH strain. 5′NTR was originated from HCV2aJ6 (FIG. 7). […] Therefore, both HCV1a/2aCh virus and HCV1a/2aChLuc virus with Y361H and Q1251L mutations were successively produced in Huh7 cells and used for HCV entry assay.

HCV [4] = experiment: Combination of viral entry inhibitor with IFN-α, HCVcc infection system, luciferase assay; format: cell-based; conditions: Huh7 cells, 72 hrs
Procedure: The current standard of care for the treatment of chronic hepatitis C is the combination of pegylated IFN-α (interferon-alpha) and ribavirin. […] Huh7 cells were incubated with various concentrations of Compound 1 or interferon alone, or combinations of both for 72 hrs, and the anti-HCV activity was measured by luciferase assays. The same was experiment was performed for Compound 5.

[5] = system: HCV1a chimeric virus and 2a chimeric virus; experiment: Combination of viral entry inhibitor with ribavirin; format: cell-based, HCV; conditions: ribavirin 15 μM
Procedure: Varying amounts of each compound were coincubated with a high concentration of ribavirin (15 μM).

HCV [6] = experiment: Combination of viral entry inhibitor with HCV protease inhibitor VX-950; format: cell-based; conditions: fixed ratio based on EC50
Procedure: Additional combination studies of Compound 1 and Compound 5 with the HCV NS3 protease inhibitor VX-950 were conducted. Compound 1 and Compound 5 were tested singly and in combination with VX-950. The ratio of the two compounds, based on the compound's EC50, remained fixed across the dosing range. The potential cytotoxicity of individual compounds was assessed with a luminescent ATP-based cell viability assay (Cell Titer-Glo; Promega). Cell culture and luciferase compound assays were performed as previously described in Example 3.
Compound interactions were quantified by the approach described by Chou and Talalay, relying on the median effect principle and the multiple-drug effect equation. […] Isobolograms were generated for each combination tested and were used to determine the additivity, synergism or antagonism of inhibitor combinations. Combination indices (CI) were determined with Calcusyn (Biosoft) for each experiment at the EC50, EC75, and EC90 of the combination. By convention, a CI of <0.9 was considered synergistic, a CI of ≧0.9 or ≦1.1 was considered additive, and a CI of >1.1 was deemed antagonistic. […] Combination indices (CI) were determined with Calcusyn (Biosoft) for each experiment at the EC50, EC75, and EC90 of the combination. By convention, a CI of <0.9 was considered synergistic, a CI of ≧0.9 or ≦1.1 was considered additive, and a CI of >1.1 was deemed antagonistic.
HCV2aChLuc (NS3:A156S) = experiment: Infectivity of protease mutant virus versus wild type in the presence of compounds; format: cell-based, HCV genotype 2a; conditions: HCV2aChLuc (NS3:A156S) vs wild type HCV2aChLuc
Source text: Therefore, we introduced A156S mutation in the backbone of HCV2aChLuc genome and investigated the infectivity of the mutant virus in the presence of compounds.

IFN-α was tested, and the “effect on HCV replication (NS5A protein expression by ELISA)” value [1] was “dose dependent inhibition”, the “sensitivity of E2 mutant virus relative to parental virus, luciferase assay for viral infectivity” value [2] was “very identical patterns” and the EC50 (Jc1-luc virus) was 3.01 ± 0.39 IU/ml. For the same compound, the CC50 (Huh7.5.1 cells) was >100 IU/ml.

In the case of COc1ccc(C(C)(C)C)cc1NC(=O)C(=O)c1ccc(OCCN2CCOCC2)c2ccccc12 [Compound 1, N-(5-tert-butyl-2-methoxyphenyl)-2-(4-(2-morpholinoethoxy)naphthalen-1-yl)-2-oxoacetamide], the IC50 (HCV2aChLuc virus; Huh-7, 72 h, read-out: observed IC50, Huh7 cells co-incubated with HCV2aChRluc virus and compound for 3 days, repeated assays (n>30)) is reported as 0.2 to 2 nM, the IC50 (HCV2aChLuc virus; Huh-7, read-out: Activity class (IC50), tested according to the method of Example 3) is reported as < 5 nM and the “inhibitory effect on HCV2aChLuc viral entry” value (HCV2aChLuc virus; Huh7 cells, 3 days) is reported as “dose-dependent inhibitory effect; also recorded: dose-dependent inhibition”. The “effect on HCV replication (NS5A protein expression by ELISA)” value [1] was “did not measurably inhibit; also recorded: no measurable effect”, the “inhibitory effect on BVDV infection” value [3] was “no measurable inhibitory effect” and the “inhibition of HCV1a chimeric virus” value (HCV1a/2a chimeric virus) was “inhibited”. The “effect of combination with IFN-α on inhibition of HCV infection in cell culture” value (HCV [4]) was “additive to moderate synergistic effect”, the “effect of combination with ribavirin” value [5] was “no antagonistic effect” and the “effect of combination with VX-950” value (HCV [6]) was “additive to slightly synergistic effects”. For the same compound, the “resistance of NS3:A156S mutant virus versus wild type (inhibition of infectivity)” value (HCV2aChLuc (NS3:A156S)) was “no significant difference” and the “sensitivity of E2 mutant virus relative to parental virus, luciferase assay for viral infectivity” value [2] was “greater resistance”.
